In brackets after ≈: the same amount, converted by molar mass. Several values for one entry are separate records, joined by “and”; a condition that tells them apart may be missing. Identical values can stand only once.
Assays:
Klebsiella pneumoniae = experiment: Checkerboard growth inhibition assay, Klebsiella pneumoniae; format: cell-based; settings: CM4 did not inhibit growth in the range used
Experimental: (§1) Each combination was performed in triplicate.
(§2) The interaction between two drugs was interpreted as synergistic if FICi was ≤0.5, indifferent if it was >0.5 and ≤4, and antagonistic if it was >4.
Triple synergy is based on the pairwise synergies of the three antibacterials, FZ (a nitrofuran), DOC and Van. To start understanding the triple interaction, a series of experiments analysing pairwise combinations were carried out. […] In contrast, Klebsiella is susceptible to synergistic action of FZ (but not NF and NFZ) with DOC and is resistant to nitrofuran CM4.

Escherichia coli O157 = experiment: Checkerboard growth inhibition assay, E. coli O157; format: cell-based; settings: for FIC of the single component within the triple combination: Van+FZ+DOC at the lowest FICi point
Experimental: as §1, §2
(§3) A growth inhibition assay was used where a series of concentrations of each antibacterial was applied combined with several concentrations of other two antibacterials (7 concentrations of Van, 8 of FZ and 9 of DOC). […] Starting from the highest concentrations, two-fold dilution series were assayed. E. coli cultures were seeded with ˜10^6 cells/mL and incubated overnight. Optical densities of each combination of concentrations were measured to assess growth and the inhibition relative to the no-antibiotic control were calculated. […] The synergistic interaction has been defined by the Fractional Inhibitory Concentration index (FICi); see the Definitions and Material and Methods sections. FICi represents the sum of the individual Fractional Inhibitory Concentrations (FIC). An FIC in turn is equal to the ratio of concentration that inhibits growth (>90%) in combination vs. alone. For pairwise combinations, the FICi below 0.5 (below 0.25 for each antibiotic) is considered synergistic; by extension for triple combination the FICi should be <0.75 (again below 0.25 for each antibiotic).

E. coli K12 = experiment: Checkerboard / dose-response growth inhibition assay, E. coli K12; format: cell-based, Escherichia coli; settings: for growth inhibition at the concentrations of the time-kill assay: FZ 1.25 μg/ml, alone or in combination; for FIC of the single component within the triple combination: Van+FZ+DOC at the lowest FICi point
Experimental: E. coli was grown in 2×YT medium (BD Difco) at 37° C. with shaking at 200 rpm. For preparation of exponential phase cells, fresh overnight culture was 100-fold diluted and incubated to reach the OD600nm of about 0.1-0.2. This cell suspension was then diluted to the desirable concentration depending on specific purposes.
as §1, §2, §3

E. coli [1] = settings: cited from earlier work
[2] = system: various Gram-negative bacteria; experiment: Inhibition of various Gram-negative bacteria by vancomycin alone and in combination; format: cell-based
Experimental: as §1

[3] = cited from earlier work
E. coli [4] = experiment: Growth inhibition of E. coli by vancomycin (strain not specified)
[5] = with FZ and DOC, at the lowest FICi point

O=C(NN=Cc1ccc([N+](=O)[O-])o1)c1ccco1 [CM4, N′-[(5-nitrofuran-2-yl)methylidene]furan-2-carbohydrazide]
concentration range in which growth was not inhibited (up to) (Klebsiella pneumoniae): > 256 µg/mL

O=C1OCCN1/N=C/c1ccc([N+](=O)[O-])o1 [FZ, 3-[(E)-(5-nitrofuran-2-yl)methylideneamino]-1,3-oxazolidin-2-one]
FIC of the single component within the triple combination (Escherichia coli O157): 0.0625 | growth inhibition at the concentrations of the time-kill assay (E. coli K12; strain BW25113, Van 125 μg/ml): sub-inhibitory | growth inhibition at the concentrations of the time-kill assay (E. coli K12; strain K1508, DOC 2,500 μg/ml): sub-inhibitory

CN[C@H](CC(C)C)C(=O)N[C@H]1C(=O)N[C@@H](CC(N)=O)C(=O)N[C@H]2C(=O)N[C@H]3C(=O)N[C@H](C(=O)N[C@H](C(=O)O)c4cc(O)cc(O)c4-c4cc3ccc4O)[C@H](O)c3ccc(c(Cl)c3)Oc3cc2cc(c3O[C@@H]2O[C@H](CO)[C@@H](O)[C@H](O)[C@H]2O[C@H]2C[C@](C)(N)[C@H](O)[C@H](C)O2)Oc2ccc(cc2Cl)[C@H]1O [Van, vancomycin]
MIC when used on its own (E. coli [1]): 250 µg/mL (≈ 173 µM) | concentration of vancomycin required to inhibit, before lowering (alone) ([2]; some variation between strains): about 500 μg/mL | bactericidal concentration of vancomycin in the triple combination ([2]; with a nitrofuran and DOC): 15.6 µg/mL | concentration of Van required to inhibit, used alone (Escherichia coli O157; 90% growth inhibition): 250 µg/mL | FIC of the single component within the triple combination (Escherichia coli O157): 0.03125 | concentration of Van required to inhibit, in triple combination (Escherichia coli O157; [5]): 16 µg/mL | known nephrotoxic concentrations ([3]; depending on the mode and length of treatment): 30 µg/mL and 20 µg/mL | concentration considered below nephrotoxic level (sub-toxic) ([3]; recommended therapeutic concentration, 6-day treatment): below 20 μg/mL | concentration of Van required to inhibit, used alone (E. coli K12; 90% growth inhibition): 500 µg/mL | FIC of the single component within the triple combination (E. coli K12): 0.03125 | growth inhibition at the concentrations of the time-kill assay (E. coli K12; strain BW25113, Van 125 μg/ml): sub-inhibitory | concentration of Van required to inhibit, in triple combination (E. coli K12; [5]): 20 µg/mL | concentration required for E. coli growth inhibition when used on its own (E. coli [4]): > 250 µg/mL | Van concentration in triple combination at several points in the graph (E. coli [4]; E. coli K12 and O157, with FZ and DOC): 16 µg/mL and 10 µg/mL

C[C@H](CCC(=O)[O-])[C@H]1CC[C@H]2[C@@H]3CC[C@@H]4C[C@H](O)CC[C@]4(C)[C@H]3C[C@H](O)[C@]12C.[Na+] [DOC, sodium; (4R)-4-[(3R,5R,8R,9S,10S,12S,13R,14S,17R)-3,12-dihydroxy-10,13-dimethyl-2,3,4,5,6,7,8,9,11,12,14,15,16,17-tetradecahydro-1H-cyclopenta[a]phenanthren-17-yl]pentanoate]
FIC of the single component within the triple combination (Escherichia coli O157): 0.03125 | FIC of the single component within the triple combination (E. coli K12): 0.0625 | growth inhibition at the concentrations of the time-kill assay (E. coli K12; strain K1508, DOC 2,500 μg/ml): sub-inhibitory

— patent US20210330645A1, “ANTIBACTERIAL COMBINATIONS” (priority 2018, published 2021)
